The nature of data set [1]: Log P measurement (1-octanol/phosphate buffer, UV). The data set is classed as physicochemical. The note with it: 1-octanol / 0.02 M phosphate buffer; 1-octanol / phosphate buffer pH 7.4. As to the method:
The partition coefficient of FBAT, determined between 1-octanol and 0.02 M phosphate buffer at pH 7.4, was measured by UV spectrophotometer (SPARK 10 M from Tecan) at wavelength 230 nm.

For data set [2], the system named is iNOS. The note with it: cited from earlier work.
For another data set, the system named is eNOS. The note with it: cited from earlier work; for selectivity vs. eNOS: iNOS vs. eNOS.
A further data set relates to nNOS. Further details: method as in PMID 11327580. Particulars: cited from earlier work.
For data set [3] the following is noted: dog, 10 min postinjection; cited from earlier work.
For data set [4] the following is noted: within 5 min postinjection; cited from earlier work.
In data set [5] the test system is murine microglial BV2 cells. The data set is described as follows: LPS-dependent nitric oxide (NO) production, Griess assay. In kind it is cell-based. Particulars: pretreatment 0.1 or 1 mM. As to the method:
Briefly, murine microglial BV2 cells were cultured in high-glucose Dulbecco's modified Eagle's medium (DMEM) supplemented with 100 U/mL penicillin. The cells were cultured in 6-well plates (~50,000 cells/well) in a humidified 5% CO2 atmosphere at 37°C until ∼60–70% confluent, washed three times with fresh media, and cultured in complete media containing LPS (0, 50, 100, or 200 ng/mL, Sigma-Aldrich, St. Louis, MO, USA). At the indicated time points, the culture media were harvested.
To assay NO, 100 μL aliquots of culture media were added to 100 μL of Griess reagent (1% sulfanilamide in 5% H3PO4) in 96-well plates, incubated at room temperature for 10 min; then, 50 μL NED Griess reagent (0.1% N-naphthyl-ethylenediamine dihydrochloride) was added and incubated for 10 min, and the absorbance values were determined at 540 nm using a TECAN Sunrise ELISA Reader. Fresh culture medium was used as a blank. The concentrations of nitrite were determined by comparison with a standard curve of sodium nitrite prepared in cell culture media.
(§1) iNOS is the enzyme responsible for NO generation in BV2 cells; therefore, accumulation of [^18F]FBAT in BV2 cells before or after iNOS inhibitor versus NO production was also assessed.

The test system of data set [6] is murine microglial BV2 cells. The experiment in a line: In vitro [^18F]FBAT uptake assay. The data set is classed as cell-based. Particulars: pretreatment 0.1 mM or 1 mM for 1 h. As to the method: BV2 cells were cultured as described above, washed three times with fresh medium, pretreated with a selective iNOS inhibitor, aminoguanidine (AMG), (0, 1, or 0.1 mM) for 1 h, and then treated with cell culture media containing LPS and the inhibitor. At the indicated time points, the cells were washed thrice with fresh cell culture media, then incubated in fresh cell culture media continuing the radiotracer [^18F]FBAT at 0.37 MBq/mL for 15, 30, or 60 min, harvested by gentle scraping, and pelleted by centrifugation at 1500 g for 2 min. The weight of the cell pellet and 0.1 mL of the radioactive supernatant was determined. A Packard 5500 gamma counter (PerkinElmer, Billerica, MA, USA) was used to quantify radioactivity as cpm/g cells or cpm/mL media, respectively. Cell-to-medium radioactivity concentration ratios were calculated and plotted over time to evaluate the kinetics of accumulation of the radiotracer.
as §1

The test system of data set [7] is iNOS. The data set is described as follows: Immunohistochemistry of iNOS in brain sections. In kind it is in vivo, C57BL/6 mice. Particulars: pretreatment, vs LPS 3 h group. As to the method:
After imaging, mice were terminally anesthetized with ketamine/xylazine and perfused with 4% paraformaldehyde, and the brains were dissected, postfixed overnight in 4% paraformaldehyde at 4°C. Five-micrometer thick paraffin-embedded brain tissues were deparaffinized, rehydrated, microwaved in 10 mM citrate buffer (pH 6.0) at 100°C for 10 min for antigen retrieval, washed, incubated in 3% […] for 15 min at RT to inhibit endogenous peroxidases, and blocked in blocking solution for 60 min at RT.
Sections were incubated with primary NOS2/NOS1 antibodies (Cat# MAB 1627; Abnova, Walnut, CA, USA) diluted 1 : 100 overnight at 4°C, developed using the Vectastain Elite kit (Vector Laboratories, Burlingame, CA) following the manufacturer's instructions, and examined using an AxioScope A1 microscope (Zeiss, Oberkochen, Germany) equipped with an Axiocam 512 color digital camera (Zeiss).
The immunohistochemistry images were converted into 8-bit grayscale images in the range. Immunostaining intensity was manually measured in the region of interest (ROI). The median (25%, 75% interquartile range) percentage score for each group (control, LPS 3 h, and LPS 24 h) was calculated as the sum of the individual number of slides within the group.

For data set [8], the target named is T1, iNOS (Mus musculus, UniProt P29477).
T1 construct: tracer to detect iNOS expression in mice injected with lipopolysaccharide (LPS) to induce brain inflammation; from tissue; host or cells: brain of living C57BL/6 mice (LPS-induced); fixed brain sections for IHC
The experiment in a line: In vivo brain PET/MR imaging of LPS-induced iNOS expression (SUV, SUR, AUC) incl. aminoguanidine blocking. Further details: species or system C57BL/6 mice. Particulars: 50 mg/kg i.p. pretreatment. As to the method: For the imaging experiments, twelve C57BL/6 mice were injected i.p. with 0.9% NaCl, eighteen mice were injected i.p. with 0.1 mL of LPS in saline (5 mg/kg), and six mice were injected i.p. with aminoguanidine (Sigma-Aldrich) 30 min prior to 5 mg/kg LPS. In vivo imaging was performed 3 h or 24 h after injection of LPS; then, the mice were immediately humanely euthanized and the brains were removed for immunostaining.
Mice (n = 30) were anesthetized with 2% isoflurane (in oxygen) and injected with [^18F]FBAT (11.1 MBq; 0.3 mCi) via the tail vein. Dynamic PET images were obtained in fully three-dimensional list mode for 30 min using a small animal SuperArgus 2r PET system (SEDECAL, Madrid, Spain) or 7T PETMR Inline (Bruker, Rheinstetten, Germany; energy window, 350-650 keV; timing window, 6 ns). Images were acquired every 10 s for 12 images, 60 s for three images, 300 s for three images, or 600 s for […]. The anatomical structure of the brain was imaged using T2 MRI. The MRI sequences included 0.5 mm thick T2 Turbo RARE high-resolution images (TR = 3000 ms, TE, 46 ms, matrix, 512 × 256, average, 40, slice number, 30, field of view, 20 × 10 mm).
After determining the optimal imaging time point for [^18F]FBAT, we performed a blocking study using a selective iNOS inhibitor to assess the specificity of the tracer for iNOS. Separate 7T PET/MR studies with [^18F]FBAT were performed for mice (n = 6) administered a bolus of aminoguanidine (50 mg/kg i.p.) 30 min prior to administration of [^18F]FBAT. The time course of [^18F]FBAT radioactivity in the brain after administration of the iNOS inhibitor was assessed and compared to that of the mice in the LPS 3 h group.
Images were reconstructed by the Fourier rebinning algorithm and two-dimensional filtered back projection using a ramp filter with a cutoff at Nyquist. The regional radioactivity concentration (kBq/cc) of [^18F]FBAT was estimated from the mean pixel values within the region of interest (ROI) corresponding to MR images of various organs and regions of the brain. ROI for carotid artery, heart muscle, lung, liver, spleen, and kidney were defined and time activity curves (TACs) generated. TACs for whole brain, cortex, cerebellum, and brainstem were also determined as described above.
The concentration of radioactivity (kBq/cc, μCi/cc) was converted to standardized uptake value (SUV), and the mean and standard deviation (SD) of radiotracer accumulation values were calculated for different organs and regions of the brain. Data were analyzed with PMOD 4.0 software (PMOD Technologies Ltd., Zurich, Switzerland).

Like-named read-outs stand apart in the source and are kept apart here.

`NC1=NC2(CCN(C(=O)c3ccc(F)cc3)CC2)Nc2c(F)ccc(F)c21` [FBAT, (4′-amino-5′,8′-difluoro-1′H-spiro[piperidine-4,2′-quinazolin]-1-yl)(4-fluorophenyl)methanone] showed a log partition coefficient (logP) in data set [1] of 1.4 ± 0.27.

Turning to `NC1=NC(c2ccc(F)cc2)Cc2cccc(F)c21` (stereo not drawn) [FFDI, 8-fluoro-3-(4-fluorophenyl)-3,4-dihydro-1-isoquino-linamine], in the data set with iNOS [2] (read-out: IC50 (affinity for iNOS)), the IC50 is 0.16 µM. In the data set on eNOS, the “selectivity for iNOS vs. eNOS” value is listed as ~ 1000 fold. Moreover, the “selectivity for iNOS vs. nNOS” value in the data set on nNOS is 100 fold.

`COC(=O)[C@@H](N)CCCN=C(N)N[N+](=O)[O-]` [[^11C]L-NAME, N-omega-nitro-L-arginine [^11C]methyl ester]: the IC50 in the data set with iNOS [2] (read-out: iNOS IC50) was 20 µM. In addition, in [3], the “fraction of radioactivity present as [^11C]methanol (metabolite)” value is 65%.

`CSC(=N)N` [[^11C]MITU, S-[^11C]methylisothiourea]: in the data set with iNOS [2] (read-out: iNOS IC50), the IC50 is 3 µM.

Regarding `[11CH3]SC(=N)N` [[^11C]MITU, S-[^11C]methylisothiourea], the “selectivity vs. eNOS” value in the data set with eNOS was 2.3 fold.

As for `Cc1cc(N)nc(CC(C)F)c1` (stereo not drawn) [[^18F]9, [^18F]6-(2-fluoropropyl)-4-methyl-pyridin-2-amine], the “parent fraction of activity in the blood” value in [4] is recorded as 40.3%.

Take `N=C(N)SCC[18F]` [[^18F]FEITU, S-(2-[^18F]fluoroethyl)isothiourea]: the IC50 with iNOS [2] (read-out: iNOS IC50) is 0.14 µM. Further, the “selectivity vs. eNOS” value in the data set with eNOS is given as 9 fold.

Regarding `N=C(N)NN` [aminoguanidine, reference compound], in data set [5], the “effect on LPS-induced NO production” value is recorded as “completely abolished”. The entries for the “effect on LPS-induced [^18F]FBAT accumulation in BV2 cells” value in data set [6] and in [6] (listed as AMG) were “inhibited” and “significantly reduced”, respectively. The “effect on LPS-induced iNOS immunoactivity, brainstem” value in the data set with iNOS [7] is “significantly reduced”. The “effect on LPS-induced iNOS immunoreactivity, cortex” value with iNOS [7] is “significantly reduced”. Besides, the figures for the “effect on [^18F]FBAT accumulation (SUV, AUC, Vt) in brain of LPS-induced mice” value at iNOS [8] and at iNOS [8] (listed as Aminoguanidine) were “significantly decreased” and “significantly reduced”, respectively.

(Values after article PMC8328489, “Automated Synthesis and Initial Evaluation of (4′-Amino-5′,8′-difluoro-1′H-spiro[piperidine-4,2′-quinazolin]-1-yl)(4-[^18F]fluorophenyl)methanone for PET/MR Imaging of Inducible Nitric Oxide Synthase” (Molecular Imaging, 2021).)
